The source of these data is the supplement of paper PMC11208160.
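Also: IS621 bridge recombinase in Escherichia coli cells against a fixed T5 target plasmid.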

A short description of the series: recombinant UMI read abundance after kanamycin selection (control-corrected) (log10(CPM+1)); higher = more efficient recombination; extreme values may be limits of the assay; sequences stand for … in AGTGCAGAGAAAATCGGCCAGTTTTCTCTGCCTGCAGTCCGCATGCCGTGGGACCCCTTGGGTTCTAACCTGTTGCCTAGATTTATGCAGCGGACTGCCTTTCTCCCAAAGTGATAAACCGG…AGGTTGGTTTCACT; site = the 11-nt donor. The method in brief: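 Under IPTG (0.07 mM) plus kanamycin, or without selection, Escherichia coli carrying a UMI-tagged donor and donor-binding-loop pair library and a target plasmid for the IS621 bridge recombinase were plated in two replicates. Recombinant UMIs were PCR-amplified across the donor–target junction and sequenced. Counts were converted to CPM, averaged over replicates, scaled by control-derived factors and reported as log10(CPM+1).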
As for “CTCCCTACATGGACCGGTTTTCCCGGTAATCCGTATTTGCG (site CTCCCTACTCC)”, the “recombinant UMI read abundance (log10)” value was 0.0203.

Consider “CTCCCTACATGGACCGGTTTTCCCGGTAATCCGTATTTGCG (site CTCCCTACTCG)”, for which the “recombinant UMI read abundance (log10)” value came out at 0.488.

On to “CTCCCTACATGGACCGGTTTTCCCGGTAATCCGTATTTGCG (site CTCCCTACTCT)”, for which the “recombinant UMI read abundance (log10)” value was found to be 0.55.

Turning to “CTCCGGCCATGGACCGGTTTTCCCGGTAATCCGTATTTGCT (site CTCCGGCCTAG)”, the “recombinant UMI read abundance (log10)” value turned out to be 0.589.

For “CTCCGTACATGGACCGGTTTTCCCGGTAATCCGTATTTGAG (site CTCCATACTCT)”, the “recombinant UMI read abundance (log10)” value is 0.649.

“CTCCGTACATGGACCGGTTTTCCCGGTAATCCGTATTTGAG (site CTCCCTACTCT)”: the “recombinant UMI read abundance (log10)” value amounted to 0.0126.

For the sequence “CTCCGTACATGGACCGGTTTTCCCGGTAATCCGTATTTGAG (site CTCCGTACTCT)”, the “recombinant UMI read abundance (log10)” value was found to be 0.509.

“CTCCGTACATGGACCGGTTTTCCCGGTAATCCGTATTTGAG (site CTCCTTACTCT)”: the “recombinant UMI read abundance (log10)” value stood at 0.0158.

Take “CTCCTCCCATGGACCGGTTTTCCCGGTAATCCGTATTTGAC (site CTCCTCCCTGT)”: the “recombinant UMI read abundance (log10)” value came out at 1.49.

In the case of “CTCCTCGCATGGACCGGTTTTCCCGGTAATCCGTATTTGAA (site CTCCTCGCTTT)”, the “recombinant UMI read abundance (log10)” value came out at 1.06.

Turning to “CTCCTCTCATGGACCGGTTTTCCCGGTAATCCGTATTTGTA (site CTACTCTCTTA)”, the “recombinant UMI read abundance (log10)” value stood at 0.176.

As to “CTCCTCTCATGGACCGGTTTTCCCGGTAATCCGTATTTGTA (site CTCCTCTCTTA)”, the “recombinant UMI read abundance (log10)” value came out at 2.45.

With “CTCCTCTCATGGACCGGTTTTCCCGGTAATCCGTATTTGTA (site CTGCTCTCTTA)”, the “recombinant UMI read abundance (log10)” value came to 0.0102.

For “CTCCTCTCATGGACCGGTTTTCCCGGTAATCCGTATTTGTA (site CTTCTCTCTTA)”, the “recombinant UMI read abundance (log10)” value was found to be 0.

For the sequence “CTCCTTGCATGGACCGGTTTTCCCGGTAATCCGTATTTGTA (site CTCCTTGCTTA)”, the “recombinant UMI read abundance (log10)” value came out at 0.

In the case of “CTCGAATCATGGACCGGTTTTCCCGGTAATCCGTATTTGAC (site CTAGTATCTGT)”, the “recombinant UMI read abundance (log10)” value was determined as 0.00618.

As for “CTCGAATCATGGACCGGTTTTCCCGGTAATCCGTATTTGAC (site CTCGAATCTGT)”, the “recombinant UMI read abundance (log10)” value was 1.76.

For “CTCGACACATGGACCGGTTTTCCCGGTAATCCGTATTTGCT (site CTCAACACTAG)”, the “recombinant UMI read abundance (log10)” value was determined as 1.72.

On to “CTCGACACATGGACCGGTTTTCCCGGTAATCCGTATTTGCT (site CTCCACACTAG)”, for which the “recombinant UMI read abundance (log10)” value is 1.93.

Take “CTCGACACATGGACCGGTTTTCCCGGTAATCCGTATTTGCT (site CTCGACACTAG)”: the “recombinant UMI read abundance (log10)” value worked out at 2.25.

“CTCGACACATGGACCGGTTTTCCCGGTAATCCGTATTTGCT (site CTCTACACTAG)”: the “recombinant UMI read abundance (log10)” value stood at 2.03.

Take “CTCGCACCATGGACCGGTTTTCCCGGTAATCCGTATTTGTC (site CTCGCACCTGA)”: the “recombinant UMI read abundance (log10)” value was 0.

“CTCGTCTCATGGACCGGTTTTCCCGGTAATCCGTATTTGAC (site CTAGTATCTGT)”: the “recombinant UMI read abundance (log10)” value was 0.

In the case of “CTCGTCTCATGGACCGGTTTTCCCGGTAATCCGTATTTGAC (site CTCGTCTCTGT)”, the “recombinant UMI read abundance (log10)” value was 1.54.

For the sequence “CTCTACACATGGACCGGTTTTCCCGGTAATCCGTATTTGCA (site CTCTACACTAG)”, the “recombinant UMI read abundance (log10)” value came to 1.37.

Take “CTCTACACATGGACCGGTTTTCCCGGTAATCCGTATTTGCA (site CTCTACACTCG)”: the “recombinant UMI read abundance (log10)” value is 0.499.

Turning to “CTCTACACATGGACCGGTTTTCCCGGTAATCCGTATTTGCA (site CTCTACACTGG)”, the “recombinant UMI read abundance (log10)” value was found to be 1.53.

Take “CTCTACACATGGACCGGTTTTCCCGGTAATCCGTATTTGCA (site CTCTACACTTG)”: the “recombinant UMI read abundance (log10)” value came to 2.37.

As for “CTCTACACATGGACCGGTTTTCCCGGTAATCCGTATTTGGT (site CTCTACACTAA)”, the “recombinant UMI read abundance (log10)” value was determined as 0.0359.
